Test system: Streptomyces toxytricini
Experiment: toxic level of linoleic acid in liquid culture of Streptomyces toxytricini
Format: cell-based
Text: With Streptomyces toxytricini, the toxic level of linoleic acid in liquid culture is about 2,300-3,000 ppm. […] For this reason, the pH of lipstatin fermentation was controlled so that the linoleic acid being liberated from fats and oils was enough for the lipstatin biosynthesis but not raised to a toxic level.

CCCCC/C=C\C/C=C\CCCCCCCC(=O)O [linoleic acid]
toxic level of linoleic acid in liquid culture: 2,300-3,000 ppm

Source: patent publication US6844174B2, “Fermentation process for lipstatin and method of extracting lipstatin from a fermentation broth” (Biogal Gyogyszergyar Rt., priority 2001, dated 2005)
